Measured values from patent US20050170437A1, “Methods and compositions relating to modulating amyloid precursor protein cleavage” (The General Hospital Corporation, priority 2003, published 2005).
Entries after “also recorded” stand apart in the source; their conditions may differ. Where two headings read alike, the source gives them in different places. Where a SMILES comes first, the peptide text is derived from it. [ ]: non-standard residue; d: D form. The star is where a group is joined. Nle = CCCC[C@H](N)C(=O)O; Cbz = O=C(OCc1ccccc1)*

Legend:
[1] = tested on: APP; experiment: Western blot analysis of APP C-terminal fragments (C99, C83, C470, ~55/~85-kDa CTFs) in AC29 cells stably transfected with APP; format: cell-based, human; parameters: steady state levels of C99 / APP-CTF levels (C99, C83, C470) compared with ALLN results: dose or concentration left out as unconfirmed
Method: Wild-type (WT) and cholesterol mutant (AC29 and 25RA) CHO cell lines were grown in Dulbecco's Modified Eagle Medium (DMEM) and Nutrient Mixture F-12 Ham (Sigma-Aldrich, St. Louis, Mo.), respectively. Media were supplemented with 10% (v/v) FBS (Atlanta Biologicals, Norcross, Ga.), 1% (v/v) L-Glutamine-Penicillin-Streptomycin solution (Sigma-Aldrich), and 0.4% (v/v) G418 Sulfate (Calbiochem, La Jolla, Calif.) as selection marker for cells stably transfected with cDNA constructs expressing APP751 or APP(ES/AA), and hygromycin for […]-[…] in a […] TOPO expression vector (Invitrogen, Carlsbad, Calif.). Cells were cultured at 37° C. in a water-saturated air/CO2 atmosphere. The following antibodies against APP were used throughout this study: 22C11 (monoclonal, against N-terminus; Chemicon International, Temecula, Calif.); 369 (monoclonal, against C-terminus; generous gift from Dr. Sam Gandy, Farber Institute for Neuroscience, Thomas Jefferson University, Philadelphia, Pa.); C7 and C8 (against C-terminus; generous gift from Dr. Dennis J. Selkoe, Harvard Medical School, Boston, Mass.); 4G8 (monoclonal, against […]β; Endogen, Woburn, Mass.); 6E10 (monoclonal, against residues 1-17 of Aβ; Senetek, St. Louis, Mo.). Antibodies against calreticulin (ER marker), GM130 (Golgi marker), and EEA-1 (early endosomes) were obtained from StressGen Biotechnologies Corp. (Victoria BC, Canada) and Transduction Laboratories (Lexington, Ky.). Anti-V5 antibody was from Invitrogen (Carlsbad, Calif.). Additional materials used in this study include the γ-secretase inhibitor DAPT (generous gift from Dr. Rudolph E. Tanzi, Massachusetts General Hospital, Charlestown, Mass.), the β-secretase inhibitor Z-VLL-CHO (Calbiochem, La Jolla, Calif.), ALLN (Calbiochem), lactacystin (Sigma-Aldrich), ammonium chloride (Sigma-Aldrich), chloroquine (Sigma-Aldrich), methyl-(3-cyclodextrin (Sigma-Aldrich), and mevastatin (Sigma).

[2] = tested on: AC29 cells; experiment: Cholesterol determinations (intracellular FC and CE pools); format: cell-based; parameters: cholesterol levels: dose or concentration left out as unconfirmed; settings: AC29 cells stably transfected with APP
Method: For the determinations of intracellular pools of FC and CE, cells were first incubated ad equilibrium (for 3 days) in the presence of [^14C]Acetic acid (57.0 mCi/mmol) (Amersham Life Science, Elk Grove, Ill.), then washed twice in PBS and extracted in chloroform/methanol (2:1; v/v). The chloroform phase was dried, resuspended again in chloroform, and applied with standards to a Silica Gel-G (EM Science, Gibbstown, N.J.) Thin Layer Chromatography (TLC). Plates were developed in hexane/ethyl ether/acetic acid (87:20:1, v/v) and visualized with […]. Spots were scraped and counted in a liquid scintillation counter.

[3] = tested on: AC29 cells; experiment: Cell viability by release of lactate-dehydrogenase (LDH) into the media; format: cell-based; settings: mβ-CD for 24 hours
Method: To establish whether the generation of the 55- and 85-kDa APP-CTFs was affected by FC in the absence of changes in CEs, we depleted AC29 cells of cholesterol using a combination of methyl β-cyclodextrin (m#-CD), a sterol-binding molecule, and mevastatin, an HMG-CoA reductase inhibitor. In our studies, mβ-CD was used for 24 hours to allow for cellular cholesterol to reach equilibrium. Cell viability was not affected, as assessed by the release of the cytosolic enzyme lactate-dehydrogenase (LDH) into the media. […] However, it is important to note that normalized FC in AC29 cells only recovered 50% of the Aβ secreted by WT CHO cells (FIG. 2B), the other 50% still missing presumably due to the absence of CE synthesis in these cells. Both ˜55- and ˜85-kDa APP-CTFs were undetectable after successful normalization of FC (FIG. 2C).

[4] = target: APP (Homo sapiens, UniProt P05067); experiment: In vitro assays of APP degradation by recombinant HtrA2; format: biochemical
Chain of APP (Homo sapiens, UniProt P05067) (P05067 18-770): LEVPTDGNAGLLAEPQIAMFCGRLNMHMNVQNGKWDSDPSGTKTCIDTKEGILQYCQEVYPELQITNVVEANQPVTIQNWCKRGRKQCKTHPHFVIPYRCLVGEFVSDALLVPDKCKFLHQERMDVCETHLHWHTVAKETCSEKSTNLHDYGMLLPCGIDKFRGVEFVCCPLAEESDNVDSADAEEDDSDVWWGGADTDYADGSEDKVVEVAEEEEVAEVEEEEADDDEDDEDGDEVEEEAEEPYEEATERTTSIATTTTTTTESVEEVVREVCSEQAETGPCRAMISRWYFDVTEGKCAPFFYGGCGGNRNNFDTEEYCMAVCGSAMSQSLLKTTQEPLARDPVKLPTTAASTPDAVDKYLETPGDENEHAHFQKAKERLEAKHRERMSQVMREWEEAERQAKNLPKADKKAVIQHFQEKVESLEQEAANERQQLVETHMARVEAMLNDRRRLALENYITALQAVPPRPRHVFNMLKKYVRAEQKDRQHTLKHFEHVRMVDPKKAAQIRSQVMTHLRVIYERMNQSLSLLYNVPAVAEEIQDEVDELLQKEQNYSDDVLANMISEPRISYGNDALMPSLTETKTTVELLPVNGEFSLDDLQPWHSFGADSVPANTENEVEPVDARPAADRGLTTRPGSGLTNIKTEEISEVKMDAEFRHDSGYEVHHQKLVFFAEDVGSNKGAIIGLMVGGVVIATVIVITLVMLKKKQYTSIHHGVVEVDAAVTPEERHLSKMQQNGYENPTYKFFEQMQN
Text: We determined that HtrA2 could serve as a chaperone binding to APP that under cellular stress could switch from chaperone to a protease that degrades misfolded APP. AC29 cells have elevated free (membrane) cholesterol level that may cause ER stress. In AC29 cells, levels of mature form of HtrA2 were elevated in the ER and Golgi as compared to the parental CHO cells (FIG. 10). Furthermore, HtrA2 localized to the cell surface in AC29 cells but not in the parental CHO cells (FIG. 11). Also we determined that HtrA2 co-purified with APP from mammalian cells (FIG. 10) and also co-immunoprecipitated with APP. In in vitro assays, recombinant HtrA2 degraded APP.

Molecule: CC(C)C[C@@H](C=O)NC(=O)[C@H](CC(C)C)NC(=O)[C@@H](NC(=O)OCc1ccccc1)C(C)C [Z-VLL-CHO] (Cbz-Val-Leu-Leu-aldehyde)
- increase in steady-state levels of C470 ([1]; Z-VLL-CHO (0.5 mM) alone, 24 hours): not evident

Molecule: CC(=O)N[C@@H](CSC(=O)[C@]1([C@@H](O)C(C)C)NC(=O)[C@H](C)[C@@H]1O)C(=O)O [lactacystin]
- APP-CTF levels (C99, C83, C470) compared with ALLN results ([1]; lactacystin instead of ALLN, with or without Z-VLL-CHO, 24 hours): Very similar results

Molecule: CCCC[C@@H](C=O)NC(=O)[C@H](CC(C)C)NC(=O)[C@H](CC(C)C)NC(C)=O [ALLN] (Ac-Leu-Leu-[Nle]-aldehyde)
- steady state levels of C99 ([1]; alone, 24 hours): increased

Molecule: CCN(CC)CCCC(C)Nc1ccnc2cc(Cl)ccc12 (stereo not shown) [chloroquine]
- steady-state levels of C470 [1]: no effect; also recorded: did not affect

Molecule: Cl.N [ammonium chloride]
- steady-state levels of C470 ([1]; ammonium chloride (NH4Cl, 10 mM)): no effect; also recorded: did not affect

Molecule: CC[C@H](C)C(=O)O[C@H]1CCC=C2C=C[C@H](C)[C@H](CC[C@@H]3C[C@@H](O)CC(=O)O3)[C@H]21 [Mevastatin, mevastatin]
- cholesterol levels [2]: did not induce significant changes

Molecule: methyl β-cyclodextrin [mβ-CD]
- FC levels ([2]; mβ-CD (1 mM) alone): reduced, but did not normalize; also recorded: reduce but did not normalize
- Cell viability (LDH release into the media) [3]: not affected

Molecule: C[C@H](NC(=O)Cc1cc(F)cc(F)c1)C(=O)N[C@H](C(=O)OC(C)(C)C)c1ccccc1 [DAPT]
- C83 levels ([1]; 250 nM DAPT, antibody C7): increased

B1: recombinant HtrA2: serine protease containing a PDZ domain; protein with ζ cleavage activity (protein, UniProt O43464 134-458, looked up)
Serine protease HTRA2, …: AVPSPPPASPRSQYNFIADVVEKTAPAVVYIEILDRHPFLGREVPISNGSGFVVAADGLIVTNAHVVADRRRVRVRLLSGDTYEAVVTAVDPVADIATLRIQTKEPLPTLPLGRSADVRQGEFVVAMGSPFALQNTITSGIVSSAQRPARDLGLPQTNVEYIQTDAAIDFGNSGGPLVNLDGEVIGVNTMKVTAGISFAIPSDRLREFLHRGEKKNSSSGISGSQRRYIGVMMLTLSPSILAELQLREPSFPDVQHGVLIHKVILGSPAHRAGLRPGDVILAIGEQMVQNAEDVYEAVRTQSQLAVQIRRGRETLTLYVTPEVTE
- degradation of APP [4]: degraded APP
